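Following 48 hours of exposure in 96-well plates, responses at five concentrations were used to interpolate endpoints linearly. TGI: total growth inhibition.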
Assays:
Assay in all cases: NCI tumour cell line growth inhibition, 48 h
786-0 renal = system: 786-0 renal
A498 renal = system: A498 renal
A549 NSCLC = system: A549 NSCLC
ACHN renal = system: ACHN renal
BT-549 breast = system: BT-549 breast
CCRF-CEM leukemia = system: CCRF-CEM leukemia
COLO 205 colon = system: COLO 205 colon
DU-145 prostate = system: DU-145 prostate
EKVX NSCLC = system: EKVX NSCLC
HCC-2998 colon = system: HCC-2998 colon
HCT-116 colon = system: HCT-116 colon
HCT-15 colon = system: HCT-15 colon
HL-60(TB) leukemia = system: HL-60(TB) leukemia
HOP-62 NSCLC = system: HOP-62 NSCLC
HOP-92 NSCLC = system: HOP-92 NSCLC
HS 578T breast = system: HS 578T breast
HT29 colon = system: HT29 colon
IGROV1 ovarian = system: IGROV1 ovarian
K-562 leukemia = system: K-562 leukemia
KM12 colon = system: KM12 colon
LOX IMVI melanoma = system: LOX IMVI melanoma
M14 melanoma = system: M14 melanoma
MCF7 breast = system: MCF7 breast
MDA-MB-231 breast = system: MDA-MB-231 breast
MDA-MB-435 = system: MDA-MB-435
MDA-N = system: MDA-N
NCI-H226 lung = system: NCI-H226 lung
NCI-H23 lung = system: NCI-H23 lung
NCI-H460 lung = system: NCI-H460 lung
NCI-H522 lung = system: NCI-H522 lung
NCI/ADR-RES ovarian = system: NCI/ADR-RES ovarian
OVCAR-3 ovarian = system: OVCAR-3 ovarian
OVCAR-4 ovarian = system: OVCAR-4 ovarian
OVCAR-5 ovarian = system: OVCAR-5 ovarian
OVCAR-8 ovarian = system: OVCAR-8 ovarian
PC-3 prostate = system: PC-3 prostate
RPMI-8226 leukemia = system: RPMI-8226 leukemia
RXF 393 renal = system: RXF 393 renal
SF-268 CNS = system: SF-268 CNS
SF-295 CNS = system: SF-295 CNS
SF-539 CNS = system: SF-539 CNS
SK-MEL-2 melanoma = system: SK-MEL-2 melanoma
SK-MEL-28 melanoma = system: SK-MEL-28 melanoma
SK-MEL-5 melanoma = system: SK-MEL-5 melanoma
SN12C renal = system: SN12C renal
SNB-19 CNS = system: SNB-19 CNS
SR leukemia = system: SR leukemia
SW-620 colon = system: SW-620 colon
T-47D breast = system: T-47D breast
TK-10 renal = system: TK-10 renal
U251 CNS = system: U251 CNS
UACC-257 melanoma = system: UACC-257 melanoma
UACC-62 melanoma = system: UACC-62 melanoma
UO-31 renal = system: UO-31 renal
CAKI-1 renal = system: CAKI-1 renal
MALME-3M melanoma = system: MALME-3M melanoma
MOLT-4 leukemia = system: MOLT-4 leukemia
SK-OV-3 ovarian = system: SK-OV-3 ovarian
SNB-75 CNS = system: SNB-75 CNS

Nc1ncnc2oc(-c3cccs3)nc12
TGI (786-0 renal): > 100 µM
TGI (A498 renal): > 100 µM
TGI (A549 NSCLC): > 100 µM
TGI (ACHN renal): > 100 µM
TGI (BT-549 breast): > 100 µM
TGI (CCRF-CEM leukemia): > 100 µM
TGI (COLO 205 colon): > 100 µM
TGI (DU-145 prostate): > 100 µM
TGI (EKVX NSCLC): > 100 µM
TGI (HCC-2998 colon): > 100 µM
TGI (HCT-116 colon): > 100 µM
TGI (HCT-15 colon): > 100 µM
TGI (HL-60(TB) leukemia): > 100 µM
TGI (HOP-62 NSCLC): > 100 µM
TGI (HOP-92 NSCLC): > 100 µM
TGI (HS 578T breast): > 100 µM
TGI (HT29 colon): > 100 µM
TGI (IGROV1 ovarian): > 100 µM
TGI (K-562 leukemia): > 100 µM
TGI (KM12 colon): > 100 µM
TGI (LOX IMVI melanoma): > 100 µM
TGI (M14 melanoma): > 100 µM
TGI (MCF7 breast): > 100 µM
TGI (MDA-MB-231 breast): > 100 µM
TGI (MDA-MB-435): > 100 µM
TGI (MDA-N): > 100 µM
TGI (NCI-H226 lung): > 100 µM
TGI (NCI-H23 lung): > 100 µM
TGI (NCI-H460 lung): > 100 µM
TGI (NCI-H522 lung): > 100 µM
TGI (NCI/ADR-RES ovarian): > 100 µM
TGI (OVCAR-3 ovarian): > 100 µM
TGI (OVCAR-4 ovarian): > 100 µM
TGI (OVCAR-5 ovarian): > 100 µM
TGI (OVCAR-8 ovarian): > 100 µM
TGI (PC-3 prostate): > 100 µM
TGI (RPMI-8226 leukemia): > 100 µM
TGI (RXF 393 renal): > 100 µM
TGI (SF-268 CNS): > 100 µM
TGI (SF-295 CNS): > 100 µM
TGI (SF-539 CNS): > 100 µM
TGI (SK-MEL-2 melanoma): > 100 µM
TGI (SK-MEL-28 melanoma): > 100 µM
TGI (SK-MEL-5 melanoma): > 100 µM
TGI (SN12C renal): > 100 µM
TGI (SNB-19 CNS): > 100 µM
TGI (SR leukemia): > 100 µM
TGI (SW-620 colon): > 100 µM
TGI (T-47D breast): > 100 µM
TGI (TK-10 renal): > 100 µM
TGI (U251 CNS): > 100 µM
TGI (UACC-257 melanoma): > 100 µM
TGI (UACC-62 melanoma): > 100 µM
TGI (UO-31 renal): > 100 µM

CC(=O)Oc1ccc2c(c1OC(C)=O)CCC1C2=CC[C@]2(C)C(=O)CCC12 (some centres undefined)
TGI (A549 NSCLC): 33.7 µM
TGI (ACHN renal): 24.3 µM
TGI (BT-549 breast): 30.7 µM
TGI (CAKI-1 renal): 19 µM
TGI (CCRF-CEM leukemia): 12.9 µM
TGI (COLO 205 colon): 27.7 µM
TGI (DU-145 prostate): 30.1 µM
TGI (EKVX NSCLC): 30.1 µM
TGI (HCT-116 colon): 18.5 µM
TGI (HCT-15 colon): 23.5 µM
TGI (HL-60(TB) leukemia): 27.5 µM
TGI (HOP-62 NSCLC): 53.7 µM
TGI (HOP-92 NSCLC): 22.4 µM
TGI (HS 578T breast): 62.5 µM
TGI (HT29 colon): 32.9 µM
TGI (IGROV1 ovarian): 18.8 µM
TGI (K-562 leukemia): 39.5 µM
TGI (KM12 colon): 33.3 µM
TGI (M14 melanoma): 26.1 µM
TGI (MALME-3M melanoma): 28.6 µM
TGI (MCF7 breast): 31.2 µM
TGI (MDA-MB-231 breast): 28.3 µM
TGI (MDA-MB-435): 18.2 µM
TGI (MDA-N): 33.4 µM
TGI (MOLT-4 leukemia): 19.4 µM
TGI (NCI-H23 lung): 46.9 µM
TGI (NCI-H460 lung): 40.3 µM
TGI (NCI-H522 lung): 5.01 µM
TGI (NCI/ADR-RES ovarian): > 100 µM
TGI (OVCAR-3 ovarian): 6.2 µM
TGI (OVCAR-4 ovarian): 15.9 µM
TGI (OVCAR-5 ovarian): 30.3 µM
TGI (OVCAR-8 ovarian): 27.7 µM
TGI (PC-3 prostate): 17.3 µM
TGI (RPMI-8226 leukemia): 8.41 µM
TGI (SF-268 CNS): 27.9 µM
TGI (SF-295 CNS): 29.7 µM
TGI (SF-539 CNS): 29.1 µM
TGI (SK-MEL-2 melanoma): 29.5 µM
TGI (SK-MEL-28 melanoma): 21.3 µM
TGI (SK-MEL-5 melanoma): 1.55 µM
TGI (SK-OV-3 ovarian): 87.4 µM
TGI (SN12C renal): 28.1 µM
TGI (SNB-19 CNS): 32.8 µM
TGI (SR leukemia): 32.9 µM
TGI (SW-620 colon): 14.5 µM
TGI (T-47D breast): 37.6 µM
TGI (TK-10 renal): 27.7 µM
TGI (UACC-257 melanoma): 68.8 µM
TGI (UACC-62 melanoma): 25.5 µM
TGI (UO-31 renal): 21.7 µM

Cc1cn(CCOCCOC(=O)NC(CCCN=C(N)N)C(=O)O)c(=O)[nH]c1=O (centres undefined)
TGI (786-0 renal): > 100 µM
TGI (A498 renal): > 100 µM
TGI (A549 NSCLC): > 100 µM
TGI (ACHN renal): > 100 µM
TGI (BT-549 breast): > 100 µM
TGI (CCRF-CEM leukemia): > 100 µM
TGI (COLO 205 colon): > 100 µM
TGI (DU-145 prostate): > 100 µM
TGI (EKVX NSCLC): > 100 µM
TGI (HCC-2998 colon): > 100 µM
TGI (HCT-116 colon): > 100 µM
TGI (HCT-15 colon): > 100 µM
TGI (HL-60(TB) leukemia): > 100 µM
TGI (HOP-62 NSCLC): > 100 µM
TGI (HOP-92 NSCLC): > 100 µM
TGI (HS 578T breast): > 100 µM
TGI (HT29 colon): > 100 µM
TGI (IGROV1 ovarian): > 100 µM
TGI (K-562 leukemia): > 100 µM
TGI (KM12 colon): > 100 µM
TGI (LOX IMVI melanoma): > 100 µM
TGI (M14 melanoma): > 100 µM
TGI (MCF7 breast): > 100 µM
TGI (MDA-MB-231 breast): > 100 µM
TGI (MDA-MB-435): > 100 µM
TGI (MDA-N): > 100 µM
TGI (MOLT-4 leukemia): > 100 µM
TGI (NCI-H226 lung): > 100 µM
TGI (NCI-H23 lung): > 100 µM
TGI (NCI-H460 lung): > 100 µM
TGI (NCI/ADR-RES ovarian): > 100 µM
TGI (OVCAR-3 ovarian): > 100 µM
TGI (OVCAR-4 ovarian): > 100 µM
TGI (OVCAR-5 ovarian): > 100 µM
TGI (PC-3 prostate): > 100 µM
TGI (RPMI-8226 leukemia): > 100 µM
TGI (RXF 393 renal): > 100 µM
TGI (SF-268 CNS): > 100 µM
TGI (SF-295 CNS): > 100 µM
TGI (SF-539 CNS): > 100 µM
TGI (SK-MEL-2 melanoma): > 100 µM
TGI (SK-MEL-28 melanoma): > 100 µM
TGI (SK-OV-3 ovarian): > 100 µM
TGI (SN12C renal): > 100 µM
TGI (SNB-19 CNS): > 100 µM
TGI (SNB-75 CNS): > 100 µM
TGI (SR leukemia): > 100 µM
TGI (SW-620 colon): > 100 µM
TGI (T-47D breast): > 100 µM
TGI (TK-10 renal): > 100 µM
TGI (U251 CNS): > 100 µM
TGI (UACC-257 melanoma): > 100 µM
TGI (UACC-62 melanoma): > 100 µM
TGI (UO-31 renal): > 100 µM
